Measured values taken from patent US20240343813A1, “COMBINATION THERAPY AND RELATED METHODS” (Bicara Therapeutics Inc., priority 2023, published 2024).

Assays:
[1] = tested on: TGFβ-induced hKRAS G12C resistant lung cancer cell line (H1792); experiment: CellTiter Glo cytotoxicity in TGFβ-induced hKRAS G12C inhibitor resistant cells; assay type: cell-based; details: long-term TGFβ treated H1792 cells compared to control H1792 cells (wild type); 72 hours
Method: Reports have shown that hKRAS G12C inhibitor efficacy is higher in cancer cells with a low epithelial-mesenchymal transition (EMT) signature compared to a high EMT signature. hTGFβ is known to induce EMT through canonical and non-canonical pathways in various cancers.
Briefly, hKRAS G12C inhibitor resistance was induced in H1792 cells by treating the cells with hTGFβ (4 ng/ml) for at least two weeks. […] Cytotoxicity was evaluated using the CellTiter Glo® Luminescent Cell Viability Assay according to manufacturer's instructions (Promega) (as described in Example 6.3).

H358 lung cancer cells = experiment: Long-term hKRAS G12C inhibitor treatment-induced resistance; assay type: cell-based; details: H358 treated with increasing concentrations of AMG510 for about one month; vs control (wild type) H358
Method: The effect of long duration treatment with a hKRAS G12C inhibitor on acquired hKRAS G12C inhibitor resistance was assessed utilizing an in vitro lung cancer model (H358). Briefly, H358 lung cancer cells were treated with increasing concentrations of the hKRAS G12C inhibitor AMG510 for about one month and cytotoxicity induced by AMG510 subsequently evaluated.

C=CC(=O)N1CCN(c2nc(=O)n(-c3c(C)ccnc3C(C)C)c3nc(-c4c(O)cccc4F)c(F)cc23)[C@@H](C)C1 [AMG510, 6-fluoro-7-(2-fluoro-6-hydroxyphenyl)-(1M)-1-[4-methyl-2-(propan-2-yl)pyridin-3-yl]-4-[(2S)-2-methyl-4-(prop-2enoyl)piperazin-1-yl]pyrido[2,3-d]pyrimidin-2 (1H)-one]
cytotoxicity in response to AMG510 treatment [1]: less cytotoxicity | acquired KRAS G12C inhibitor resistance (percent viability) (H358 lung cancer cells): developed KRAS G12C inhibitor (AMG510) resistance
